Measurements published in patent US8865901B2, “Gain-of-function Bcl-2 inhibitors” (priority 2009, dated 2014).
pEC50, pIC50: −log10 of the molar value. Where two headings read alike, the source gives them in different places.

What was measured:
[1] = tested on: TAMH cells overexpressing Bcl-xL (TAMH-Bcl-xL, Tabx2s); test: Cytotoxicity / apoptosis induction in TAMH cells overexpressing Bcl-xL; assay type: cell-based; settings: for Neo/Bcl-xL: selectivity ratio
Experimental: (§1) To examine the sensitivity of cells over-expressing Bcl-xL to various mitochondrial inhibitors and apoptosis inducers, cell lines over-expressing Bcl-xL were prepared and tested according to Hockenberry et al. U.S. Pat. No. 7,241,804, hereby incorporated by reference in its entirety. Competitive binding of compounds with fluorescent antimycin A3, and competitive binding of compounds with BH3 peptide and Bcl-2. Competitive binding of compounds with BH-3 peptide were also measured using Bcl-xL as previously described. Id.
(§2) Cell lines were grown in RPMI 1640 medium (Gibco, Grand Island, N.Y.) supplemented with 5% fetal bovine serum (Hyclone, Logan, Utah). Also shown is the ratio of TAMH cells expressing Bcl-xL to those expressing A142L (WT:142L). The assay measures the potency of various compounds with respect to inducing apoptosis in these cells.
(§3) The compounds described in Example 2 were tested for their ability to inhibit Bcl-2 gain-of-function in TAMH cells, TAMH cells overexpressing […] (TAMH-Bcl-xL), TAMH cells transfected with Neo vector (Neo), TAMH cells over expressing a variant of Bcl-xL (A142L) using the methods of Example 1. 3-6.
(§4) The effects of the compounds described in Example 8 on TAMH cells, TAMH cells overexpressing Bcl-xL (TAMH-Bcl-xL), TAMH cells transfected with Neo vector (Neo), TAMH cells over expressing a variant of Bcl-xL (A142L) is shown in Table 8
(§5) The effects of the compounds described in Example 10 on TAMH cells, TAMH cells overexpressing Bcl-xL (TAMH-Bcl-xL), TAMH cells transfected with Neo vector (Neo), TAMH cells over expressing a variant of Bcl-xL (A142L) is shown in the following Table 10

[2] = tested on: TAMH cells transfected with Neo vector (Neo); test: Cytotoxicity / apoptosis induction in TAMH cells transfected with Neo vector; assay type: cell-based; settings: for pIC50: read-out: IC50 TAMH Neo
Experimental: as §1, §2, §3, §4, §5

[3] = Table 10, read-out: IC50 TAMH Bcl-XL
[4] = Table 13, read-out: IC50 TAMH Bcl-xL

| SMILES | Fold Select. (Neo/Bcl-XL) ([1]; Table 10) | pIC50 [1, 3] | pIC50 ([2]; Table 10) | further results |
| --- | --- | --- | --- | --- |
| Cc1c(Cl)c(C)c(Sc2c(C)c(Cl)c(C)c(Br)c2O)c(O)c1Br [Compound 9874] | 2.8 | 6.15 | 5.70 | – |
| CC(C)(C)c1ccc(O)c(Sc2cc(C(C)(C)C)ccc2O)c1 [Compound 2855] | – | – | – | Fold Select. (Neo/Bcl-XL) ([1]; Table 11): 0 |
| CCN(Cc1cc(Cl)cc(C)c1O)Cc1c(O)ccc2ccccc12 [Compound 88850] | – | – | – | Neo/Bcl-XL ([1]; Table 18): 2.7; pEC50 ([1]; Table 18, read-out: Bcl-XL): 5.35; pEC50 ([2]; Table 18, read-out: Neo): 4.92 |
| Oc1ccc(Cl)cc1Sc1cc(Cl)ccc1O [Compound 55636] | 7.7 | 5.72 | 4.83 | pEC50 ([1]; Table 8, read-out: TAMH Bcl-xL): 5.72; Neo/Bcl-xL ([1]; Table 8): 7.7; pEC50 ([2]; Table 8, read-out: TANH Neo): 4.83 |
| COc1cc(C)ccc1C(=O)c1ccc(C)cc1OC [Compound 143532] | – | – | – | Fold Select. (Neo/Bcl-XL) ([1]; Table 11): 0 |
| O=S(=O)(c1cc(Br)ccc1O)c1cc(Br)ccc1O [Compound 1050] | 2.8 | 5.42 | 4.98 | – |
| Cc1cccc(Cc2cccc(C)c2O)c1O [Compound 85476] | 2.9 | 4.73 | 4.26 | – |
| Cc1c(Cl)cc(C(C)(C)C)c(O)c1Cc1c(C)c(Cl)cc(C(C)(C)C)c1O [Compound 5857] | 2.8 | 5.35 | 4.90 | – |
| CC(=O)Nc1ccc(Sc2ccc(NC(C)=O)cc2O)c(O)c1 [Compound 4581] | – | – | – | Fold Select. (Neo/Bcl-XL) ([1]; Table 11): 0 |
| Cc1cc(Cc2cc(Cc3cc(C)cc(C(C)(C)C)c3O)c(C)cc2C)c(O)c(C(C)(C)C)c1 [Compound 57725] | – | – | – | Fold Select. (Neo/Bcl-xL) ([1]; Table 13): −0 |
| Cc1cc(C(C)(C)C)cc(Cc2cc(C(C)(C)C)cc(Cc3cc(C(C)(C)C)cc(C)c3O)c2O)c1O [Compound 634604] | – | – | – | Fold Select. (Neo/Bcl-xL) ([1]; Table 13): 6.4; pIC50 [1, 4]: 5.30; pIC50 ([2]; Table 13): 4.49 |
| Cc1cc(Sc2cc(C)cc(C(C)(C)C)c2O)c(O)c(C(C)(C)C)c1 [Compound 67488] | 6.8 | 4.84 | – | – |
| CC(=O)c1cc(Cl)cc(Cc2cc(Cl)cc(Cc3cc(Cl)cc(C(C)=O)c3O)c2O)c1O [Compound 48698] | – | – | – | Fold Select. (Neo/Bcl-xL) ([1]; Table 13): 8.1; pIC50 [1, 4]: 6.15; pIC50 ([2]; Table 13): 5.24 |
| O=C(O)c1cc(Cl)cc(Cc2cc(Cl)cc(C(=O)O)c2O)c1O [Compound 48684] | – | – | – | Fold Select. (Neo/Bcl-XL) ([1]; Table 11): 0 |
| Oc1ccc(Br)cc1Sc1cc(Br)ccc1O [Compound 1049] | 2.2 | 5.72 | 5.38 | – |
| Oc1ccc(Cl)cc1Cc1cc(Cl)cc(Cc2cc(Cl)ccc2O)c1O [Compound 47932] | – | – | – | pEC50 ([1]; Table 8, read-out: TAMH Bcl-xL): 6.30; Neo/Bcl-xL ([1]; Table 8): 7; Fold Select. (Neo/Bcl-xL) ([1]; Table 13): 7; pIC50 [1, 4]: 6.30; pEC50 ([2]; Table 8, read-out: TANH Neo): 5.46; pIC50 ([2]; Table 13): 5.46 |
| CCc1cc(Cc2cc(CC)cc(C(C)(C)C)c2O)c(O)c(C(C)(C)C)c1 [Compound 7782] | 1.7 | 5.68 | 5.46 | – |
| Cc1cc(O)c(Sc2c(O)cc(C)cc2C(C)(C)C)c(C(C)(C)C)c1 [Compound 59685] | 5.5 | 4.92 | 4.18 | – |
| Cc1cc(O)c(Sc2c(O)cc(C)c(Cl)c2C)c(C)c1Cl [Compound 52168] | 5.2 | 6.00 | 5.28 | – |
| O=[N+]([O-])c1ccc(S(=O)(=O)Cc2ccccc2)c2nonc12 [Compound 228148] | – | – | – | pEC50 ([1]; Table 8, read-out: TAMH Bcl-xL): 5.22; Neo/Bcl-xL ([1]; Table 8): 3.8; Fold Selectivity (Neo/Bcl-XL) ([1]; Table 15): 3.8; pIC50 ([1]; Table 15, read-out: IC50 TAMH Bcl-XL): 5.22; pEC50 ([2]; Table 8, read-out: TANH Neo): 4.65; pIC50 ([2]; Table 15): 4.65 |
| Cc1cc(Cc2cc(C)c(N)cc2N)c(N)cc1N [Compound 7215] | – | – | – | Fold Select. (Neo/Bcl-XL) ([1]; Table 11): 0 |
| CC(C)(C)c1cc(C(C)(C)c2ccccc2)cc(Cc2cc(C(C)(C)c3ccccc3)cc(C(C)(C)C)c2O)c1O [Compound 288938] | 3.3 | 4.55 | 4.03 | – |
| Oc1c(Cl)cc(Cl)cc1Sc1cc(Cl)cc(Cl)c1O [Compound 47129] | 4.6 | 6.30 | 5.64 | – |
| Cc1cc(Cl)cc(Cc2cc(Cl)cc(C)c2O)c1O [Compound 77122] | 3.3 | 5.70 | 5.18 | – |
